Laboratory results: the supplement of paper PMC10627819

Tests used:
Assay in all cases: Bliss interaction score (quartile over a dose matrix) (fitness difference); higher = more antagonism (negative = synergy)
B. subtilis 168 = system: B. subtilis 168
How it was run: (§1)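 Fitness here means normalised growth, inferred for single drugs from the combination data. Growth was OD595 at entry into stationary phase, divided by the plate's robust no-drug mean and capped at 1. The Bliss score is observed minus expected fitness, with the expectation being the product, and its quartiles span technical, biological and donor/recipient replicates.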

S. aureus DSM 20231 = system: S. aureus DSM 20231
How it was run: as §1

S. aureus Newman = system: S. aureus Newman
How it was run: as §1

S. pneumoniae D39V = system: S. pneumoniae D39V
How it was run: as §1
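Also: first quartile when negative (synergy) and third quartile when positive (antagonism).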

Compound: CN[C@H](CC(C)C)C(=O)N[C@H]1C(=O)N[C@@H](CC(N)=O)C(=O)N[C@H]2C(=O)N[C@H]3C(=O)N[C@H](C(=O)N[C@H](C(=O)O)c4cc(O)cc(O)c4-c4cc3ccc4O)[C@H](O[C@H]3C[C@](C)(N)[C@@H](O)[C@H](C)O3)c3ccc(c(Cl)c3)Oc3cc2cc(c3O[C@@H]2O[C@H](CO)[C@@H](O)[C@H](O)[C@H]2O[C@H]2C[C@](C)(NCc3ccc(-c4ccc(Cl)cc4)cc3)[C@@H](O)[C@H](C)O2)Oc2ccc(cc2Cl)[C@H]1O [Oritavancin] + Oc1cc(Cl)ccc1Oc1ccc(Cl)cc1Cl [Triclosan]
- Bliss interaction score (B. subtilis 168): 0.0201
- Bliss interaction score (S. aureus DSM 20231): 0.108
- Bliss interaction score (S. aureus Newman): -0.0473
- Bliss interaction score (S. pneumoniae D39V): 0.102

Compound: CO[C@H]1/C=C/O[C@@]2(C)Oc3c(C)c(O)c4c(O)c(c(/C=N/N5CCN(C)CC5)c(O)c4c3C2=O)NC(=O)/C(C)=C\C=C\[C@H](C)[C@H](O)[C@@H](C)[C@@H](O)[C@@H](C)[C@H](OC(C)=O)[C@@H]1C [Rifampicin] + CCCCCCCCCC(=O)N[C@@H]1[C@H]([C@@H]([C@H](O[C@H]1OC2=C3C=C4C=C2OC5=C(C=C(C=C5)[C@H]([C@H]6C(=O)N[C@@H](C7=C(C(=CC(=C7)O)OC8[C@H]([C@H]([C@@H]([C@H](O8)CO)O)O)O)C9=C(C=CC(=C9)[C@H](C(=O)N6)NC(=O)[C@@H]4NC(=O)[C@@H]1C2=CC(=CC(=C2)OC2=C(C=CC(=C2)[C@H](C(=O)N[C@H](CC2=CC(=C(O3)C=C2)Cl)C(=O)N1)N)O)O)O)C(=O)O)O[C@H]1[C@@H]([C@H]([C@@H]([C@H](O1)CO)O)O)NC(=O)C)Cl)CO)O)O [Teicoplanin]
- Bliss interaction score (B. subtilis 168; main component drawn): 0.176
- Bliss interaction score (S. aureus DSM 20231; main component drawn): -0.0357
- Bliss interaction score (S. aureus Newman; main component drawn): -0.0536
- Bliss interaction score (S. pneumoniae D39V; main component drawn): 0.0769

Compound: CO[C@H]1/C=C/O[C@@]2(C)Oc3c(C)c(O)c4c(O)c(c(/C=N/N5CCN(C)CC5)c(O)c4c3C2=O)NC(=O)/C(C)=C\C=C\[C@H](C)[C@H](O)[C@@H](C)[C@@H](O)[C@@H](C)[C@H](OC(C)=O)[C@@H]1C [Rifampicin] + CC[C@H]1OC(=O)[C@H](C)C(=O)[C@H](C)[C@@H](O[C@@H]2O[C@H](C)C[C@H](N(C)C)[C@H]2O)[C@](C)(OC)C[C@@H](C)C(=O)[C@H](C)[C@H]2N(CCCCn3cnc(-c4cccnc4)c3)C(=O)O[C@]12C [Telithromycin]
- Bliss interaction score (B. subtilis 168): 0.0808
- Bliss interaction score (S. aureus DSM 20231): 0.0559
- Bliss interaction score (S. aureus Newman): 0.0171
- Bliss interaction score (S. pneumoniae D39V): -0.157

Compound: CO[C@H]1/C=C/O[C@@]2(C)Oc3c(C)c(O)c4c(O)c(c(/C=N/N5CCN(C)CC5)c(O)c4c3C2=O)NC(=O)/C(C)=C\C=C\[C@H](C)[C@H](O)[C@@H](C)[C@@H](O)[C@@H](C)[C@H](OC(C)=O)[C@@H]1C [Rifampicin] + COc1cc(Cc2cnc(N)nc2N)cc(OC)c1OC [Trimethoprim]
- Bliss interaction score (B. subtilis 168): 0.131
- Bliss interaction score (S. aureus DSM 20231): -0.0578
- Bliss interaction score (S. aureus Newman): -0.0473
- Bliss interaction score (S. pneumoniae D39V): 0.0931

Compound: CO[C@H]1/C=C/O[C@@]2(C)Oc3c(C)c(O)c4c(O)c(c(/C=N/N5CCN(C)CC5)c(O)c4c3C2=O)NC(=O)/C(C)=C\C=C\[C@H](C)[C@H](O)[C@@H](C)[C@@H](O)[C@@H](C)[C@H](OC(C)=O)[C@@H]1C [Rifampicin] + Oc1cc(Cl)ccc1Oc1ccc(Cl)cc1Cl [Triclosan]
- Bliss interaction score (B. subtilis 168): 0.0445
- Bliss interaction score (S. aureus DSM 20231): -0.0595
- Bliss interaction score (S. aureus Newman): 0.0206
- Bliss interaction score (S. pneumoniae D39V): -0.0563

Compound: CN[C@@H]1[C@H](O)[C@H](NC)[C@H]2O[C@@]3(O)C(=O)C[C@@H](C)O[C@H]3O[C@@H]2[C@H]1O [Spectinomycin] + CC[C@H]1OC(=O)[C@H](C)C(=O)[C@H](C)[C@@H](O[C@@H]2O[C@H](C)C[C@H](N(C)C)[C@H]2O)[C@](C)(OC)C[C@@H](C)C(=O)[C@H](C)[C@H]2N(CCCCn3cnc(-c4cccnc4)c3)C(=O)O[C@]12C [Telithromycin]
- Bliss interaction score (B. subtilis 168): 0.038
- Bliss interaction score (S. aureus DSM 20231): -0.0419
- Bliss interaction score (S. aureus Newman): -0.0947
- Bliss interaction score (S. pneumoniae D39V): -0.14

Compound: CN[C@@H]1[C@H](O)[C@H](NC)[C@H]2O[C@@]3(O)C(=O)C[C@@H](C)O[C@H]3O[C@@H]2[C@H]1O [Spectinomycin] + Cc1cc(NS(=O)(=O)c2ccc(N)cc2)no1 [Sulfamethoxazol]
- Bliss interaction score (B. subtilis 168): -0.0406
- Bliss interaction score (S. aureus DSM 20231): -0.0866
- Bliss interaction score (S. aureus Newman): 0.0687
- Bliss interaction score (S. pneumoniae D39V): -0.0374

Compound: CN[C@@H]1[C@H](O)[C@H](NC)[C@H]2O[C@@]3(O)C(=O)C[C@@H](C)O[C@H]3O[C@@H]2[C@H]1O [Spectinomycin] + Oc1cc(Cl)ccc1Oc1ccc(Cl)cc1Cl [Triclosan]
- Bliss interaction score (B. subtilis 168): -0.0762
- Bliss interaction score (S. aureus DSM 20231): -0.0648
- Bliss interaction score (S. aureus Newman): 0.0626
- Bliss interaction score (S. pneumoniae D39V): 0.0557

Compound: CN[C@@H]1[C@H](O[C@H]2[C@H](O[C@H]3[C@H](O)[C@@H](O)[C@H](N=C(N)N)[C@@H](O)[C@@H]3N=C(N)N)O[C@@H](C)[C@]2(O)C=O)O[C@@H](CO)[C@H](O)[C@H]1O [Streptomycin] + CC[C@H]1OC(=O)[C@H](C)C(=O)[C@H](C)[C@@H](O[C@@H]2O[C@H](C)C[C@H](N(C)C)[C@H]2O)[C@](C)(OC)C[C@@H](C)C(=O)[C@H](C)[C@H]2N(CCCCn3cnc(-c4cccnc4)c3)C(=O)O[C@]12C [Telithromycin]
- Bliss interaction score (B. subtilis 168): 0.0819
- Bliss interaction score (S. aureus DSM 20231): 0.0793
- Bliss interaction score (S. aureus Newman): -0.109
- Bliss interaction score (S. pneumoniae D39V): -0.0487
